Patent publication US20250140406A1, “CLASSIFYING TUMORS AND PREDICTING RESPONSIVENESS” (Oncocyte Corporation, priority 2022, published 2025)
Square brackets hold non-standard residues; d marks the D form. Peptide text beside a SMILES is read from it.

Assays:
[1] = system: cancer cell lines, DetermaIO classes; experiment: Association of PRISM compound sensitivity with DetermaIO (DTIO) cell line classes; assay type: cell-based
[2] = system: cancer cell lines classified IM, MSL, M; experiment: PRISM screen compound sensitivity correlated with IM, MSL and M subtype of cell lines (101 gene signature); assay type: cell-based; details: for IM Corr test: correlation of PRISM compound sensitivity with IM subtype correlation; for M Corr test: correlation of PRISM compound sensitivity with M subtype correlation; for MSL Corr test: correlation of PRISM compound sensitivity with MSL subtype correlation
[3] = correlation of PRISM compound sensitivity with DTIO; test cell set (188 cell lines)
[4] = correlation of PRISM compound sensitivity with DTIO; training cell set (371 cell lines)
[5] = correlation of PRISM compound sensitivity with DTIO; test cell set
[6] = correlation of PRISM compound sensitivity with DTIO; training cell set
[7] = subtype (IM, MSL or M) with which compound sensitivity is negatively correlated, training cell set (371 cell lines), 101 gene signature
[8] = subtype (IM, MSL or M) with which PRISM compound sensitivity is negatively correlated, training cell set, 101 gene signature
[9] = correlation of PRISM compound sensitivity with DTIO (DetermaIO); test cell set (188 cell lines)
[10] = correlation of PRISM compound sensitivity with DTIO (DetermaIO); training cell set (371 cell lines)
[11] = correlation of compound sensitivity with DTIO; test set
[12] = correlation of compound sensitivity with DTIO; training set
[13] = subtype (IM, MSL or M) assigned to the compound by negative correlation of PRISM sensitivity with subtype, training cell set (371 cell lines), 101 gene signature
[14] = association of compound sensitivity with DetermaIO classes; test data set
[15] = association of compound sensitivity with DetermaIO classes; training data set

Structure (SMILES)	IM Corr test ([2]; test cell set (188 cell lines))	M Corr test ([2]; test cell set (188 cell lines))	MSL Corr test ([2]; test cell set (188 cell lines))	DTIO Corr test [1, 5]	DTIO Corr train [1, 6]	other results
CNC(=O)CN1CCC(Oc2cc3c(Nc4cccc(Cl)c4F)ncnc3cc2OC)CC1 [AZD8931]	−0.09307	0.2208	0.4034			DTIO Corr test [1, 3]: 0.04159; DTIO Corr train [1, 4]: −0.08735
Cc1c(-c2ccnn2C)cc(C(=O)NCc2ccc(S(C)(=O)=O)cn2)c(=O)n1-c1cccc(C(F)(F)F)c1 [AZD9668]				−0.00254	0.06934	IM Corr test ([2]; test cell set): 0.06774; M Corr test ([2]; test cell set): −0.1139; MSL Corr test ([2]; test cell set): 0.009005
O=C(c1ccc(Cl)o1)N1CC2CNCC2C1 (stereo not shown) [AZD 1446]	−0.01023	−0.00226	−0.09838	−0.00648	−0.01778	TNBCType train [2, 7]: MSL
Cc1ccc(S(=O)(=O)/C=C/C#N)cc1 [BAY-11-7082]	0.07793	−0.1474	0.0317	0.04014	−0.00647	
Cc1oc2nc3c(c(NC(=O)CN4CCCC4=O)c2c1C)CCCC3 [BCI-540]				0.01234	−0.02488	IM Corr test ([2]; test cell set): 0.07689; M Corr test ([2]; test cell set): −0.08152; MSL Corr test ([2]; test cell set): −0.1815; TNBCType train [2, 8]: MSL
CC(C)CCN1c2nc(Nc3cc(F)c(O)c(F)c3)ncc2N(C)C(=O)C1C (stereo not shown) [BI-D1870]	−0.01584	0.01001	0.02005	0.01854	−0.09163	
C/C(=C\C(=O)Nc1ccccc1C(=O)O)c1ccc2ccccc2c1 [BIBR-1532]	−0.1712	0.141	−0.1482	−0.226	−0.05255	TNBCType train [2, 7]: MSL
CN1C(=O)N(c2cc(Cl)cc(Cl)c2)C(=O)[C@]12CN(Cc1cc(C(=O)O)cs1)C[C@H]2c1ccc(C#N)cc1 [BMS-587101]	−0.05699	0.1367	−0.03676	−0.08591	0.01986	TNBCType train [2, 7]: MSL
Cc1c(NC(=O)OC[C@@H]2COCCN2)cn2ncnc(Nc3ccc4c(cnn4Cc4cccc(F)c4)c3)c12 [BMS-599626]	−0.1901	0.2776	0.4191	−0.02871	−0.07697	DTIO Corr test ([1]; correlation of compound sensitivity with DetermaIO (DTIO), test set): −0.02871; DTIO Corr train ([1]; correlation of compound sensitivity with DetermaIO (DTIO), training set): −0.07697
COc1cccc(Nc2ncnn3ccc(CN4CC[C@@H](N)[C@H](O)C4)c23)c1 [BMS-690514]	−0.1648	0.2486	0.3466			DTIO Corr test [1, 9]: 0.01346; DTIO Corr train [1, 10]: −0.1666; DTIO Corr test ([1]; correlation of compound sensitivity with DTIO, test set): 0.01346; DTIO Corr train ([1]; correlation of compound sensitivity with DTIO, training set): −0.1666; DTIO Corr test [1, 11]: 0.01346; DTIO Corr train [1, 12]: −0.1666
COc1cc(C(=O)c2c(C)oc3c(O)c(OC)ccc23)cc(OC)c1OC [BNC105]				−0.1135	−0.1119	IM Corr test ([2]; test cell set): −0.07446; M Corr test ([2]; test cell set): −0.08585; MSL Corr test ([2]; test cell set): −0.09188; TNBCType train [2, 8]: MSL
O=C1/C(=C/c2ccccc2)C[C@@]2(O)[C@H]3Cc4ccc(O)c5c4[C@@]2(CCN3CC2CC2)[C@H]1O5 [BNTX]	−0.1371	0.09323	0.1062	−0.1085	−0.1416	
CC(C)C[C@@H]1NC(=O)[C@@H](C(C)C)NC(=O)[C@@H]2CCCN2C(=O)[C@@H](CC(=O)O)NC(=O)[C@@H](Cc2c[nH]c3ccccc23)NC1=O [BQ-123] (cyclo(L[dW][dD]P[dV]))	0.0449	−0.1374	−0.1421	0.07641	0.04394	TNBCType train [2, 7]: MSL
O=C(Nc1cccc(Nc2ncc(Br)c(NCCc3cnc[nH]3)n2)c1)N1CCCC1 [BX-912]				0.03523	0.04083	IM Corr test ([2]; test cell set): 0.1542; M Corr test ([2]; test cell set): −0.2367; MSL Corr test ([2]; test cell set): −0.03732
Cc1ccc(-n2sc(=O)n(Cc3ccc(F)cc3)c2=O)cc1 [CCG-50014]	0.03964	−0.1198	−0.2063	−0.03813	0.0404	
Nc1nc(-c2ccc(Cl)c(Cl)c2)c(-c2ccncc2)s1 [CGH2466]	−0.07415	0.03776	0.04331			DTIO Corr test [1, 9]: −0.01803; DTIO Corr train [1, 10]: −0.09319

Structure (SMILES)	IM Corr test ([2]; test cell set (188 cell lines))	M Corr test ([2]; test cell set (188 cell lines))	MSL Corr test ([2]; test cell set (188 cell lines))	DTIO Corr test [1, 5]	DTIO Corr train [1, 6]	other results
CCCCCCCCCCC(C)(C)C(=O)Nc1c(OC)cc(OC)cc1OC [CI-976]	0.06082	−0.082	−0.03363			DTIO Corr test [1, 9]: 0.03532; DTIO Corr train [1, 10]: 0.09198; TNBCType train [2, 13]: MSL
C=CC(=O)Nc1cccc(Nc2nc(Nc3ccc(Oc4ccnc(C(=O)NC)c4)cc3)ncc2F)c1 [CNX-774]				0.1389	0.07802	IM Corr test ([2]; test cell set): 0.09358; M Corr test ([2]; test cell set): −0.09506; MSL Corr test ([2]; test cell set): 0.02463
O=C(O)C1CN(CCCP(=O)(O)O)CCN1 (stereo not shown) [CPP]	−0.04467	−0.01154	−0.2411			DTIO Corr test [1, 9]: −0.04842; DTIO Corr train [1, 10]: −0.04563; TNBCType train [2, 13]: MSL
CCn1c(=O)[nH]c2cc(Cl)c(Cl)cc21 [DCEBIO]	0.1207	−0.1198	−0.1352			DTIO Corr test [1, 9]: 0.121; DTIO Corr train [1, 10]: 0.1577
CC(=O)Nc1ccc(Cc2ccc(NC(C)=O)cc2)cc1 [FH1]				−0.06073	−0.08253	IM Corr test ([2]; test cell set): −0.11; M Corr test ([2]; test cell set): 0.01237; MSL Corr test ([2]; test cell set): −0.1426
NC(=O)c1cccc(-c2cc(Nc3ccc(OC(F)(F)F)cc3)ncn2)c1 [GNF-2]	−0.03304	−0.07177	−0.05938			DTIO Corr test [1, 3]: −0.02831; DTIO Corr train [1, 4]: −0.02935
CCCCC#Cc1nc(NC)c2ncn([C@@H]3O[C@H](CO)[C@@H](O)[C@H]3O)c2n1 [HEMADO]				−0.09381	−0.08651	IM Corr test ([2]; test cell set): −0.0662; M Corr test ([2]; test cell set): 0.05737; MSL Corr test ([2]; test cell set): 0.1849
O=C1[C@H](Cc2ccc(O)cc2)N2C(=O)CCN(C(=O)NCc3ccccc3)[C@H]2CN1Cc1cccc2ccccc12 [ICG-001]	0.1415	−0.2223	0.01929			DTIO Corr test [1, 3]: 0.1635; DTIO Corr train [1, 4]: 0.1783; DTIO Corr test [1, 11]: 0.1635; DTIO Corr train [1, 12]: 0.1783
O=C(O)CCC/C=C\C[C@@H]1CO[C@H](C(F)(F)F)O[C@@H]1c1ccccc1O [ICI-185,282]				−0.02205	−0.09302	IM Corr test ([2]; test cell set): −0.05673; M Corr test ([2]; test cell set): 0.07129; MSL Corr test ([2]; test cell set): 0.1418
NC(=O)CCCCn1ccc(NC(N)=NCC(F)(F)F)n1 [ICI-162846]	−0.1537	0.1647	0.0517	−0.05711	−0.09255	
O=C(O)CNC(=O)c1c(O)c2ccccc2n(Cc2ccccc2)c1=O [IOX2]	−0.04037	0.09066	0.01906			DTIO Corr test [1, 3]: −0.06501; DTIO Corr train [1, 4]: −0.0409
Cc1cc(C)cc(C(=O)N(C)[C@H](Cc2ccc(-c3ccccc3)cc2)C(=O)N[C@@H](Cc2c[nH]c3ccccc23)C(=O)O)c1 [IRL-2500]	−0.01191	0.007861	−0.1214			DTIO Corr test [1, 3]: 0.02691; DTIO Corr train [1, 4]: −0.06473
O=C(Nc1ccc(C(F)(F)F)cn1)N1CCN(c2ncccc2C(F)(F)F)CC1 [JNJ-17203212]				−0.00666	−0.1037	IM Corr test ([2]; test cell set): −0.03139; M Corr test ([2]; test cell set): 0.03655; MSL Corr test ([2]; test cell set): 0.142
CCCCCOc1c(OC)ccc2cc(C(=O)NCc3ccc4c(c3)OCO4)c(=O)[nH]c12 [JTE-907]	−0.05167	0.08725	−0.01924			DTIO Corr test [1, 9]: −0.04389; DTIO Corr train [1, 10]: −0.131
Clc1ccc(C2(c3ccc(-c4cn[nH]c4)cc3)CCNCC2)cc1 [K12040459]						DTIO Corr test [1, 14]: 0.003574; DTIO Corr train [1, 15]: 0.04812; TNBCType train ([2]; classification of association of compound sensitivity with IM, MSL and M cell line classes, training data set): MSL
C[C@@H]1NC(C)(C)CO[C@@]1(O)c1cccc(Cl)c1 [K13394247]						DTIO Corr test [1, 14]: −0.04236; DTIO Corr train [1, 15]: 0.0598; TNBCType test ([2]; classification of association of compound sensitivity with IM, MSL and M cell line classes, test data set): MSL
